What all share (type): toxicity, cell-based
Data set [1] deals with Fibroblast. Nature of the data set: Incucyte cell viability with human fibroblast. The conditions noted are these: 10 µM, compound concentration 10 uM.
Data set [2] relates to HEK-293T. Nature of the data set: Incucyte cell viability with HEK293T. The conditions noted are these: human, 10 µM, compound concentration 10 uM.
Data set [3] concerns U2OS. Nature of the data set: Incucyte cell viability with U2OS. The conditions noted are these: human, 10 µM, compound concentration 10 uM.

These results are taken from ChEMBL document CHEMBL5303304, “EUbOPEN Chemogenomics Library - IncuCyte” (2023).
Also: unitless GR value; below 1 slowed growth and below 0 cell loss.

With `CCn1c(-c2ccncc2)cc2c1CCNC2=O`, the “Growth Rate” value in data set [1] (0 h, replicate number 1) is -0.22; in data set [1] (6 h, replicate number 1), -0.99; in data set [2] (0 h, replicate number 1), -0.57; in data set [2] (0 h, replicate number 2), -0.66; in data set [2] (6 h, replicate number 1) it was 0.22; in data set [2] (6 h, replicate number 2), -0.3. Further, the “Growth Rate” value in data set [2] (12 h, replicate number 1) was -0.65; in data set [2] (12 h, replicate number 2), -0.55; in data set [2] (18 h, replicate number 1), -0.57; in data set [2] (18 h, replicate number 2), -0.47; in data set [2] (24 h, replicate number 1) it was -0.56; in data set [2] (24 h, replicate number 2) it was -0.39. In addition, the “Growth Rate” value in data set [3] (0 h, replicate number 1) is listed as -0.56; in data set [3] (0 h, replicate number 2) it was 0.39; in data set [3] (12 h, replicate number 1), 0.78; in data set [3] (12 h, replicate number 2), 0.44; in data set [3] (18 h, replicate number 1), 0.29; in data set [3] (18 h, replicate number 2), 0.12. For the same molecule, the “Growth Rate” value worked out at 0.13 in data set [3] (24 h, replicate number 1) and 0.08 in data set [3] (24 h, replicate number 2).

For `COc1cccc(CNc2ccc(S(=O)(=O)Nc3nc4ccccc4s3)cc2)c1O` [VLX-1005], the “Growth Rate” value in data set [1] (6 h, replicate number 2) amounted to 0.25; in data set [1] (12 h, replicate number 2), 0.76; in data set [1] (18 h, replicate number 2), 0.84; in data set [1] (24 h, replicate number 1), 1; in data set [1] (24 h, replicate number 2) it was 0.84; in data set [2] (0 h, replicate number 1), 0.18. Further, the “Growth Rate” value in data set [2] (18 h, replicate number 1) is on record as 0.96; in data set [3] (6 h, replicate number 1), 0.62; in data set [3] (12 h, replicate number 1), 0.89; in data set [3] (24 h, replicate number 1) it was 0.99.

For the molecule `CCCCCCCC/C=C\CCCCCCCC(=O)NCCO` [OLEOYLETHANOLAMIDE], the “Growth Rate” value in data set [1] (6 h, replicate number 1) was 0.19; in data set [1] (12 h, replicate number 1), 0.64; in data set [1] (12 h, replicate number 2), 0.96; in data set [1] (18 h, replicate number 1), 0.35; in data set [1] (24 h, replicate number 1), 0.78; in data set [1] (24 h, replicate number 2), 0.98. Further, the “Growth Rate” value is on record as -0.38 in data set [2] (0 h, replicate number 1); 0.43 in data set [2] (6 h, replicate number 2); 0.83 in data set [2] (12 h, replicate number 2); 0.75 in data set [2] (18 h, replicate number 2); 0.62 in data set [2] (24 h, replicate number 2); -0.18 in data set [3] (0 h, replicate number 1). For the same molecule, the “Growth Rate” value in data set [3] (0 h, replicate number 2) was 0.62; in data set [3] (6 h, replicate number 1), 0.87; in data set [3] (6 h, replicate number 2), 0.54; in data set [3] (12 h, replicate number 1), 0.87; in data set [3] (12 h, replicate number 2), 0.68; in data set [3] (18 h, replicate number 1), 0.81. Besides, the “Growth Rate” value in data set [3] (18 h, replicate number 2) was 0.74; in data set [3] (24 h, replicate number 1), 0.79; in data set [3] (24 h, replicate number 2), 0.76.

Regarding `CC(C)(O)c1ccc2c(c1)ncn2-c1cccc(-c2ccccc2C#N)c1`, the “Growth Rate” value in data set [1] (0 h, replicate number 1) is on record as 0.6; in data set [1] (0 h, replicate number 2), -0.48; in data set [1] (6 h, replicate number 2) it was -0.67; in data set [1] (12 h, replicate number 1) it was 0.43; in data set [1] (12 h, replicate number 2), 0.33; in data set [1] (18 h, replicate number 1) it was 0.64. In addition, the “Growth Rate” value in data set [1] (18 h, replicate number 2) was 0.52; in data set [1] (24 h, replicate number 1), 0.28; in data set [2] (6 h, replicate number 1) it was 0.78; in data set [2] (6 h, replicate number 2), -0.24; in data set [2] (12 h, replicate number 1) it was 0.77; in data set [2] (12 h, replicate number 2), 0.2. In addition, the “Growth Rate” value in data set [2] (18 h, replicate number 1) is 0.65; in data set [2] (18 h, replicate number 2), 0.48; in data set [2] (24 h, replicate number 1) it was 0.73; in data set [2] (24 h, replicate number 2), 0.54; in data set [3] (0 h, replicate number 1), 0.93; in data set [3] (0 h, replicate number 2) it was 0.83.

On to `C=C[C@H]1C[N@@]2CC[C@H]1C[C@@H]2[C@@H](O)c1ccnc2ccc(OC)cc12` [QUINIDINE], for which the “Growth Rate” value is recorded as -0.43 in data set [1] (0 h, replicate number 1); 0.36 in data set [1] (6 h, replicate number 1); 0.17 in data set [1] (6 h, replicate number 2); -1 in data set [1] (12 h, replicate number 1); 0.9 in data set [1] (12 h, replicate number 2); 1 in data set [1] (18 h, replicate number 2). Also, the “Growth Rate” value in data set [1] (24 h, replicate number 2) was 0.74; in data set [2] (6 h, replicate number 2) it was 0.85; in data set [3] (0 h, replicate number 2) it was -1; in data set [3] (6 h, replicate number 2) it was -0.07; in data set [3] (12 h, replicate number 1) it was 0.59; in data set [3] (12 h, replicate number 2), 0.65. Also, the “Growth Rate” value was 0.93 in data set [3] (18 h, replicate number 1); 0.73 in data set [3] (18 h, replicate number 2); 0.96 in data set [3] (24 h, replicate number 1); 0.83 in data set [3] (24 h, replicate number 2).

Turning to `CNc1ncc2cc(-c3ccc(-c4cccc(C)n4)cc3Cl)c(=O)n(C[C@H]3OC[C@H](N)CO3)c2n1`, the “Growth Rate” value in data set [1] (0 h, replicate number 1) is recorded as 0.26; in data set [1] (0 h, replicate number 2) it was -0.44; in data set [1] (6 h, replicate number 2), 0.69; in data set [1] (12 h, replicate number 1), 0.36; in data set [1] (12 h, replicate number 2), 0.19; in data set [1] (18 h, replicate number 1), 0.37. Moreover, the “Growth Rate” value in data set [1] (18 h, replicate number 2) is on record as 0.14; in data set [1] (24 h, replicate number 1) it was 0.41; in data set [1] (24 h, replicate number 2), 0.16; in data set [2] (0 h, replicate number 1), -0.96; in data set [3] (0 h, replicate number 1) it was 0.31; in data set [3] (6 h, replicate number 2) it was 0.37. The “Growth Rate” value in data set [3] (12 h, replicate number 2) is 0.83; in data set [3] (18 h, replicate number 2), 0.77; in data set [3] (24 h, replicate number 2), 0.53.

Take `CC(C)(C)c1ccc(NC(=O)N2CCN(c3ncccc3Cl)CC2)cc1`: the “Growth Rate” value is given as -0.81 in data set [1] (0 h, replicate number 2); 0.2 in data set [1] (6 h, replicate number 1); 0.84 in data set [1] (18 h, replicate number 1); 0.87 in data set [1] (24 h, replicate number 2); -0.72 in data set [2] (6 h, replicate number 1); -0.47 in data set [2] (6 h, replicate number 2). The “Growth Rate” value in data set [2] (12 h, replicate number 1) is listed as -0.41; in data set [2] (12 h, replicate number 2), 0.06; in data set [2] (18 h, replicate number 1) it was -0.12; in data set [2] (18 h, replicate number 2) it was 0.09; in data set [2] (24 h, replicate number 1), -0.21; in data set [2] (24 h, replicate number 2) it was 0.17. Further, the “Growth Rate” value in data set [3] (12 h, replicate number 1) turned out to be 0.89; in data set [3] (18 h, replicate number 1), 0.88; in data set [3] (24 h, replicate number 1), 0.99.

On to `CN(C)c1ncc2cc(-c3ccc(-c4ncccc4F)cc3Cl)c(=O)n(C[C@H]3OC[C@H](N)CO3)c2n1`, for which the “Growth Rate” value in data set [1] (0 h, replicate number 1) is listed as -0.2; in data set [1] (0 h, replicate number 2), -0.89; in data set [2] (0 h, replicate number 1) it was -1; in data set [3] (12 h, replicate number 2) it was 0.96; in data set [3] (18 h, replicate number 2), 0.99.

As for `Cn1c(Nc2c(Cl)cccc2Cl)nc2ccc3nc[nH]c(=O)c3c21`, the “Growth Rate” value in data set [1] (6 h, replicate number 1) came out at 0.64; in data set [1] (6 h, replicate number 2) it was 0.1; in data set [1] (12 h, replicate number 1) it was 0.65; in data set [1] (12 h, replicate number 2), 0.35; in data set [1] (18 h, replicate number 1), 0.71; in data set [1] (18 h, replicate number 2) it was 0.42. Further, the “Growth Rate” value in data set [1] (24 h, replicate number 1) was 0.51; in data set [1] (24 h, replicate number 2) it was 0.33; in data set [2] (0 h, replicate number 2) it was -1; in data set [2] (6 h, replicate number 1) it was 0.08; in data set [2] (6 h, replicate number 2), 0.03; in data set [3] (0 h, replicate number 1), -0.24. Besides, the “Growth Rate” value in data set [3] (0 h, replicate number 2) is listed as 0.87; in data set [3] (6 h, replicate number 1) it was 0.95; in data set [3] (6 h, replicate number 2), 0.19; in data set [3] (12 h, replicate number 1), 0.97; in data set [3] (12 h, replicate number 2), 0.74; in data set [3] (18 h, replicate number 1), 0.86. For the same molecule, the “Growth Rate” value came out at 0.83 in data set [3] (18 h, replicate number 2); 0.98 in data set [3] (24 h, replicate number 1); 0.85 in data set [3] (24 h, replicate number 2).

For the molecule `O=C1NC(Nc2ccccc2)=N/C1=C\c1ccc2c(c1)OCO2`, the “Growth Rate” value in data set [1] (0 h, replicate number 2) was -0.92; in data set [1] (6 h, replicate number 1), -0.96; in data set [2] (0 h, replicate number 1), 0.4; in data set [2] (0 h, replicate number 2), 0.1; in data set [2] (6 h, replicate number 1), 0.83; in data set [2] (6 h, replicate number 2), 0. The “Growth Rate” value in data set [2] (12 h, replicate number 1) is 0.37; in data set [2] (12 h, replicate number 2), 0.19; in data set [2] (18 h, replicate number 1), 0.43; in data set [2] (18 h, replicate number 2), 0.47; in data set [2] (24 h, replicate number 1), 0.56; in data set [2] (24 h, replicate number 2), 0.33. In addition, the “Growth Rate” value is recorded as 0.78 in data set [3] (6 h, replicate number 2); 0.39 in data set [3] (12 h, replicate number 2); 0.85 in data set [3] (18 h, replicate number 1); 0.66 in data set [3] (18 h, replicate number 2); 0.95 in data set [3] (24 h, replicate number 1); 0.66 in data set [3] (24 h, replicate number 2).

For `O=C1CN(c2ccccc2F)C(NCCN2CCOCC2)=C1c1nc2cc(Br)ccc2c(=O)[nH]1`, the “Growth Rate” value is -0.37 in data set [1] (0 h, replicate number 2); 0.22 in data set [2] (6 h, replicate number 1); 0.74 in data set [2] (6 h, replicate number 2); 0.49 in data set [2] (12 h, replicate number 1); 1 in data set [2] (12 h, replicate number 2); 0.53 in data set [2] (18 h, replicate number 1). Also, the “Growth Rate” value in data set [2] (24 h, replicate number 1) worked out at 0.74; in data set [2] (24 h, replicate number 2), 0.88; in data set [3] (0 h, replicate number 1), 0.24; in data set [3] (6 h, replicate number 1) it was 0.56; in data set [3] (12 h, replicate number 1) it was 0.85; in data set [3] (12 h, replicate number 2), 0.96. For the same molecule, the “Growth Rate” value is 1 in data set [3] (18 h, replicate number 1); 0.89 in data set [3] (24 h, replicate number 1); 0.96 in data set [3] (24 h, replicate number 2).
